Assay results: PMC12867150, “A fungi-derived cyclic peptide enhances Th9-mediated antitumor immunity by targeting ZAP70 and SREBP1” (The Journal of Clinical Investigation, 2025)
Where “and” joins values, the source holds several entries; their conditions need not be identical. Equal entries are not always repeated.

System: Th2 cells
Assay: Th2 polarization, IL-4 by flow cytometry (Figure 1G)
Format: cell-based, mouse
Method: Naive CD4^+ T cells were isolated from the spleens of C57BL/6J or CD45.1^+ OT-II mice using the MojoSort Mouse CD4 Naive T Cell Isolation Kit (BioLegend, catalog 480040), following the manufacturer’s protocol. Purified cells were cultured in RPMI-1640 medium supplemented with 10% FBS, 1% penicillin-streptomycin, and 0.1% β-mercaptoethanol (Gibco, catalog 21985023).
T cell polarization was initiated under plate-bound anti-CD3 (2 μg/mL, clone 17A2, BioXCell, catalog BE0002) and soluble anti-CD28 (1 μg/mL, clone 37.51, BioXCell, catalog BE0015-1) stimulation, with the addition of cytokines and neutralizing antibodies specific to each subset. For Th9 cells, these included IL-4 (10 ng/mL, Peprotech, catalog 400-04), TGF-β (1 ng/mL, EPOTO Biotech, catalog HF-2021), anti–IL-12 (5 μg/mL, clone C17.8, BioXCell, catalog BE0051), and anti–IFN-γ (10 μg/mL, clone XMG1.2, BioXCell, catalog BE0055); for Th1 cells, these included IL-12 (10 ng/mL, GenScript, catalog Z03211-50) and anti–IL-4 (5 μg/mL, clone 11B11, BioXCell, catalog BE0045); for Th2 cells, these included IL-4 (50 ng/mL), anti–IFN-γ (20 μg /mL), anti–IL-12 (5 μg/mL), Th17 cells: IL-6 (20 ng/mL, EPOTO Biotech, catalog MF-1006), TGF-β (1 ng/mL), IL-1β (10 ng/mL, Peprotech, catalog AF-211-11B), anti–IFN-γ (10 μg/mL), anti–IL-12 (5 μg/mL), and anti–IL-4 (5 μg/mL); and for Tregs, these included TGF-β (3 ng/mL). […]

anteiso-C15 Leu7 surfactin [EpA] was tested, and the “IL-4 expression under Th2 polarization” value (EpA 10 μM, individual replicates, n = 4) was 38.3947 and 41.0302 and 36.7821 and 38.8006 and the “effect on Th2 differentiation” value (result in words) was “only a minor increase in Th2 differentiation”.
